Reference: patent US10524472B2, “Elicitor peptides having disrupted hypersensitive response box and use thereof” (Plant Health Care, Inc., priority 2014, dated 2020)
Marks after values point to notes of the source that are not given here.

Legend:
[1] = system: tobacco mosaic virus (TMV); test: Induction of resistance to tobacco mosaic virus in tobacco; assay type: in vivo; conditions: for Effectiveness Covered (%) (decline in TMV lesions vs UTC, systemic response) / Effectiveness Uncovered (%) (decline in TMV lesions vs UTC, local response): spray 10 ug/ml, TMV 3 days post-treatment, scored 3 days after inoculation; for TMV response / effectiveness against TMV infection (summary of Table 22): foliar spray
soybean seeds = test: Root & shoot growth analysis after seed soak, soy; assay type: in vivo; conditions: for Root (root growth index, percentage increase over untreated control) / Shoot (shoot length, percentage increase over untreated control): soy, 12-14 days
Method: Peptides were tested for biological effects on the allocation of growth resources to the shoot (above ground) and root (below ground). Peptides were dissolved at 0.2, 2, or 5 μg/ml in a total volume of 100 ml deionized water. Corn or soybean seeds were then soaked for one hour in the peptide solution. Untreated control (UTC) plants were soaked in deionized water. Clear plastic 300 ml beverage cups (Solo®, Dart Container Corporation) were prepared for planting by marking the bottom with a cross, dividing the bottom into four equal quadrants. The cups were then filled with Sunshine Mix #1 soil (SunGro Horticulture) sieved to ¼″. 100 ml of water was added to the soil. Treated seeds were then planted by pressing the seed lightly into the top of the soil. The seeds were then covered with an additional 50 ml of loose soil. Seeds were allowed to germinate and grow for 12-14 days.
The length of the shoot was measured as the distance from the soil to the lightly stretched tip of the highest leaf for each plant. […] Stunting was defined as lacking a fully expanded true leaf at time of data collection or having an expanded true leaf judged by eye to be <½ the average leaf area of the treatment group. Generally, 30 seeds were planted per treatment group and 15-25 plants were used for data collection.
Root growth was estimated by counting the number of times that a primary root crosses the quadrant marks on the bottom of the cup. These were often observed along the bottom circumference of the cup, although some were visible along the side of the container and were counted as if crossing a vertical extension of the quadrant line. This number was divided by 4 to produce a root growth index.
Each number indicates the percentage increase over the untreated control values.

Substance	Effectiveness Covered (%) (decline in TMV lesions vs UTC, systemic response) [1]	Effectiveness Uncovered (%) (decline in TMV lesions vs UTC, local response) [1]	TMV response / effectiveness against TMV infection (summary of Table 22) [1]	other results
SQGISEKQLDQLLASQLIQALLQP (P4-i14A)	77%	75%	–	–
SQGISEKQLDQLLSQAIQALLQP (P4-14S-16A)	3%	1%	weaker TMV responses	–
SQGISEKQLDQLLSQL (P4-116)	0* %	52%	reduced effectiveness against TMV infection	–
SQGISEKQLDQLLSQLFQALLQP (P4-14S-17F)	57%	94%	–	–
SQGISEKQLDQLLSQLI (P4-111)	65%	58%	–	–
SQGISEKQLDQLLSQLIAQALLQP (P4-i18A)	50%	81%	–	–
SQGISEKQLDQLLSQLIQALDQP (P4-14S-21D)	48%	49%	–	–
SQGISEKQLDQLLSQLIQASLQP (P4-14S-20S)	−45%	59* %	weaker TMV responses	shoot growth (Table 20) (soybean seeds; seed soak, p14a soy at 0.2 μg/ml): increased shoot growth; Root (root growth index, percentage increase over untreated control) (soybean seeds; seed soak 5.0 μg/ml): 2.2%; Shoot (shoot length, percentage increase over untreated control) (soybean seeds; seed soak 5.0 μg/ml): 5.8%*
SQGISEKQLDQLLSQLIQAVLQP (P4-14S-20V)	−29%	−26%	weaker TMV responses	–
SQGISEKQLDQLLSQLI_ALLQP (SQGISEKQLDQLLSQLIALLQP; P4-d18)	15%	65%	–	–
SQGISEKQLDQLLSQSIQALLQP (P4-14S-16S)	46%	72* %	–	root growth (text summary of Table 20) (soybean seeds; seed soak, listed as P4-14s-16s): strong shift in resource allocation to root growth; root growth (text summary of Table 20) (soybean seeds; seed soak, listed as p4-14s-16s): Increased root growth; Root (root growth index, percentage increase over untreated control) (soybean seeds; seed soak 0.2 μg/ml): 28.3%; Shoot (shoot length, percentage increase over untreated control) (soybean seeds; seed soak 0.2 μg/ml): −2.0%; Root (root growth index, percentage increase over untreated control) (soybean seeds; seed soak 2.0 μg/ml): 28.3%*; Shoot (shoot length, percentage increase over untreated control) (soybean seeds; seed soak 2.0 μg/ml): −11.3%
SQGISEKQLDQLLSQVIQALLQP (P4-14S-16V)	85* %	78%	produced the best results	–
SQGISEKQL_QLL_QLI_ALLQP (SQGISEKQLQLLQLIALLQP; P4-d10,14,18)	37%	55%	moderate reduction in effectiveness against TMV infection	–
